Measured values taken from patent US8952024B2, “Herbicidal pyrimidone derivatives” (E I du Pont de Nemours and Company, priority 2009, dated 2015).

Columns and labels:
Assay in all cases: Test D pre-/postemergence plant response
Type in all cases: in vivo
[1] = tested on: naked crabgrass (Digitaria nuda)
Source text: (§1) Seeds of plant species selected from bermudagrass (Cynodon dactylon), Surinam grass (Brachiaria decumbens), large crabgrass (Digitaria sanguinalis), green foxtail (Setaria viridis), goosegrass (Eleusine indica), johnsongrass (Sorghum halepense), kochia (Kochia scoparia), morningglory (pitted morningglory, Ipomoea lacunosa), nutsedge (purple nutsedge, Cyperus rotundus), ragweed (common ragweed, Ambrosia elatior), black mustard (Brassica nigra), guineagrass (Panicum maximum), dallisgrass (Paspalum dilatatum), barnyardgrass (Echinochloa crus-galli), sandbur (southern sandbur, Cenchrus echinatus), sowthistle (common sowthistle, Sonchus oleraceous), prickly sida (Sida spinosa), Italian ryegrass (Lolium multiflorum), purslane (common purslane, Portulaca oleracea), signalgrass (broadleaf signalgrass, Brachiaria platyphylla), groundsel (common groundsel, Senecio vulgaris), chickweed (common chickweed, Stellaria media), dayflower (Virginia (VA) dayflower, Commelina virginica), bluegrass (annual bluegrass, Poa annua), naked crabgrass (Digitaria nuda), itchgrass (Rottboellia cochinchinensis), quackgrass (Elytrigia repens), field bindweed (Convolvulus arvensis), spanishneedles (Bidens bipinnata), mallow (common mallow, Malva sylvestris) and Russian thistle (Salsola kali), were planted into a blend of loam soil and sand and treated preemergence with test chemicals formulated in a non-phytotoxic solvent mixture which included a surfactant. At the same time, plants from these weed species were treated with postemergence applications of the test chemicals formulated in the same manner. Plants ranged in height from 2 to 18 cm (1- to 4-leaf stage) for postemergence treatments.
(§2) Treated plants and controls were maintained in a greenhouse for 14 to 21 days, after which time all species were visually evaluated and compared to controls. Plant response ratings, summarized in Table D, are based on a scale of 0 to 100 where 0 is no effect and 100 is complete control. A dash (-) response means no test result.

[2] = tested on: large crabgrass (Digitaria sanguinalis)
Source text: as §1, §2

[3] = tested on: chickweed (common chickweed, Stellaria media)
Source text: as §1, §2

kochia (Kochia scoparia) = tested on: kochia (Kochia scoparia)
Source text: as §1, §2

[4] = tested on: field bindweed (Convolvulus arvensis)
Source text: as §1, §2

[5] = tested on: morningglory (pitted morningglory, Ipomoea lacunosa)
Source text: as §1, §2

[6] = tested on: prickly sida (Sida spinosa)
Source text: as §1, §2

[7] = tested on: dayflower (Virginia (VA) dayflower, Commelina virginica)
Source text: as §1, §2

[8] = tested on: Surinam grass (Brachiaria decumbens)
Source text: as §1, §2

[9] = tested on: sandbur (southern sandbur, Cenchrus echinatus)
Source text: as §1, §2

[10] = Postemergence, 16 g ai/ha, scale 0 to 100
[11] = Postemergence, 31 g ai/ha, scale 0 to 100
[12] = Postemergence, 125 g ai/ha, scale 0 to 100 (0 no effect, 100 complete control)
[13] = Preemergence, 16 g ai/ha, scale 0 to 100, 0 no effect, 100 complete control
[14] = Preemergence, 31 g ai/ha, scale 0 to 100 (0 no effect, 100 complete control)
[15] = Preemergence, 62 g ai/ha, scale 0 to 100
[16] = Preemergence, 125 g ai/ha, scale 0 to 100
[17] = Postemergence, 62 g ai/ha, scale 0 to 100 (0 no effect, 100 complete control)

## Cc1ccc(F)c(-n2c(-c3ccccc3)ncc(C(=O)C3=C(O)CCCC3=O)c2=O)c1 [Compound 51]
[1]; [10]
  Plant response rating, Crabgrass, Naked: 35
[1]; [11]
  Plant response rating, Crabgrass, Naked: 50
[1]; [12]
  Plant response rating, Crabgrass, Naked: 65
[1]; [13]
  Plant response rating, Crabgrass, Naked: 0
[1]; [14]
  Plant response rating, Crabgrass, Naked: 0
[1]; [15]
  Plant response rating, Crabgrass, Naked: 0
[1]; [16]
  Plant response rating, Crabgrass, Naked: 0
[2]; [10]
  Plant response rating, Crabgrass, Large: 25
[2]; [11]
  Plant response rating, Crabgrass, Large: 35
[2]; [12]
  Plant response rating, Crabgrass, Large: 35
[2]; [17]
  Plant response rating, Crabgrass, Large: 35
[2]; [13]
  Plant response rating, Crabgrass, Large: 0
[2]; [14]
  Plant response rating, Crabgrass, Large: 5
[2]; [15]
  Plant response rating, Crabgrass, Large: 5
[2]; [16]
  Plant response rating, Crabgrass, Large: 5
[3]; [12]
  Plant response rating, Chickweed: 70
Kochia (Kochia scoparia); [10]
  Plant response rating, Kochia: 5
Kochia (Kochia scoparia); [11]
  Plant response rating, Kochia: 5
Kochia (Kochia scoparia); [12]
  Plant response rating, Kochia: 20
Kochia (Kochia scoparia); [17]
  Plant response rating, Kochia: 5
Kochia (Kochia scoparia); [13]
  Plant response rating, Kochia: 0
Kochia (Kochia scoparia); [15]
  Plant response rating, Kochia: 0
Kochia (Kochia scoparia); [16]
  Plant response rating, Kochia: 50
[4]; [10]
  Plant response rating, Field Bindweed: 5
[4]; [11]
  Plant response rating, Field Bindweed: 5
[4]; [12]
  Plant response rating, Field Bindweed: 60
[4]; [17]
  Plant response rating, Field Bindweed: 20
[4]; [13]
  Plant response rating, Field Bindweed: 0
[4]; [14]
  Plant response rating, Field Bindweed: 0
[4]; [15]
  Plant response rating, Field Bindweed: 0
[4]; [16]
  Plant response rating, Field Bindweed: 0
[5]; [10]
  Plant response rating, Morningglory: 0
[5]; [11]
  Plant response rating, Morningglory: 20
[5]; [12]
  Plant response rating, Morningglory: 65
[5]; [17]
  Plant response rating, Morningglory: 20
[5]; [13]
  Plant response rating, Morningglory: 0
[5]; [14]
  Plant response rating, Morningglory: 0
[5]; [15]
  Plant response rating, Morningglory: 30
[5]; [16]
  Plant response rating, Morningglory: 100
[6]; [10]
  Plant response rating, Prickly Sida: 50
[6]; [11]
  Plant response rating, Prickly Sida: 50
[6]; [12]
  Plant response rating, Prickly Sida: 75
[6]; [17]
  Plant response rating, Prickly Sida: 65
[6]; [13]
  Plant response rating, Prickly Sida: 0
[6]; [14]
  Plant response rating, Prickly Sida: 20
[6]; [15]
  Plant response rating, Prickly Sida: 20
[6]; [16]
  Plant response rating, Prickly Sida: 35
[7]; [10]
  Plant response rating, Dayflower, VA: 10
[7]; [11]
  Plant response rating, Dayflower, VA: 10
[7]; [12]
  Plant response rating, Dayflower, VA: 20
[7]; [17]
  Plant response rating, Dayflower, VA: 10
[7]; [13]
  Plant response rating, Dayflower, VA: 0
[7]; [14]
  Plant response rating, Dayflower, VA: 0
[7]; [16]
  Plant response rating, Dayflower, VA: 0
[8]; [10]
  Plant response rating, Surinam Grass: 50
[8]; [11]
  Plant response rating, Surinam Grass: 60
[8]; [12]
  Plant response rating, Surinam Grass: 80
[8]; [17]
  Plant response rating, Surinam Grass: 70
[8]; [13]
  Plant response rating, Surinam Grass: 90
[8]; [14]
  Plant response rating, Surinam Grass: 98
[9]; [10]
  Plant response rating, Sandbur: 5
[9]; [11]
  Plant response rating, Sandbur: 25
[9]; [12]
  Plant response rating, Sandbur: 60
[9]; [17]
  Plant response rating, Sandbur: 25
[9]; [13]
  Plant response rating, Sandbur: 0
[9]; [14]
  Plant response rating, Sandbur: 0
[9]; [16]
  Plant response rating, Sandbur: 75

## Cc1ccc(Cl)cc1-n1c(-c2ccccc2)ncc(C(=O)C2=C(O)CCCC2=O)c1=O [Compound 52]
[1]; [10]
  Plant response rating, Crabgrass, Naked: 70
[1]; [11]
  Plant response rating, Crabgrass, Naked: 75
[1]; [12]
  Plant response rating, Crabgrass, Naked: 95
[1]; [17]
  Plant response rating, Crabgrass, Naked: 95
[1]; [13]
  Plant response rating, Crabgrass, Naked: 0
[1]; [14]
  Plant response rating, Crabgrass, Naked: 0
[1]; [15]
  Plant response rating, Crabgrass, Naked: 20
[1]; [16]
  Plant response rating, Crabgrass, Naked: 80
[2]; [10]
  Plant response rating, Crabgrass, Large: 65
[2]; [11]
  Plant response rating, Crabgrass, Large: 70
[2]; [12]
  Plant response rating, Crabgrass, Large: 70
[2]; [17]
  Plant response rating, Crabgrass, Large: 70
[2]; [13]
  Plant response rating, Crabgrass, Large: 0
[2]; [14]
  Plant response rating, Crabgrass, Large: 20
[2]; [15]
  Plant response rating, Crabgrass, Large: 75
[2]; [16]
  Plant response rating, Crabgrass, Large: 98
[3]; [10]
  Plant response rating, Chickweed: 75
[3]; [11]
  Plant response rating, Chickweed: 90
[3]; [12]
  Plant response rating, Chickweed: 100
[3]; [17]
  Plant response rating, Chickweed: 98
[3]; [16]
  Plant response rating, Chickweed: 95
Kochia (Kochia scoparia); [10]
  Plant response rating, Kochia: 0
Kochia (Kochia scoparia); [11]
  Plant response rating, Kochia: 0
Kochia (Kochia scoparia); [12]
  Plant response rating, Kochia: 40
Kochia (Kochia scoparia); [17]
  Plant response rating, Kochia: 0
Kochia (Kochia scoparia); [14]
  Plant response rating, Kochia: 25
Kochia (Kochia scoparia); [15]
  Plant response rating, Kochia: 25
Kochia (Kochia scoparia); [16]
  Plant response rating, Kochia: 35
[4]; [10]
  Plant response rating, Field Bindweed: 50
[4]; [11]
  Plant response rating, Field Bindweed: 70
[4]; [12]
  Plant response rating, Field Bindweed: 70
[4]; [17]
  Plant response rating, Field Bindweed: 70
[4]; [13]
  Plant response rating, Field Bindweed: 20
[4]; [15]
  Plant response rating, Field Bindweed: 20
[4]; [16]
  Plant response rating, Field Bindweed: 50
[5]; [10]
  Plant response rating, Morningglory: 50
[5]; [11]
  Plant response rating, Morningglory: 65
[5]; [12]
  Plant response rating, Morningglory: 70
[5]; [17]
  Plant response rating, Morningglory: 70
[5]; [13]
  Plant response rating, Morningglory: 0
[5]; [14]
  Plant response rating, Morningglory: 0
[5]; [15]
  Plant response rating, Morningglory: 0
[5]; [16]
  Plant response rating, Morningglory: 100
[6]; [10]
  Plant response rating, Prickly Sida: 65
[6]; [11]
  Plant response rating, Prickly Sida: 65
[6]; [12]
  Plant response rating, Prickly Sida: 90
[6]; [17]
  Plant response rating, Prickly Sida: 80
[6]; [13]
  Plant response rating, Prickly Sida: 0
[6]; [14]
  Plant response rating, Prickly Sida: 0
[6]; [15]
  Plant response rating, Prickly Sida: 50
[6]; [16]
  Plant response rating, Prickly Sida: 100
[7]; [10]
  Plant response rating, Dayflower, VA: 5
[7]; [11]
  Plant response rating, Dayflower, VA: 5
[7]; [12]
  Plant response rating, Dayflower, VA: 60
[7]; [17]
  Plant response rating, Dayflower, VA: 30
[7]; [13]
  Plant response rating, Dayflower, VA: 0
[7]; [14]
  Plant response rating, Dayflower, VA: 0
[7]; [15]
  Plant response rating, Dayflower, VA: 0
[7]; [16]
  Plant response rating, Dayflower, VA: 40
[8]; [11]
  Plant response rating, Surinam Grass: 65
[8]; [12]
  Plant response rating, Surinam Grass: 90
[8]; [17]
  Plant response rating, Surinam Grass: 80
[8]; [13]
  Plant response rating, Surinam Grass: 0
[8]; [14]
  Plant response rating, Surinam Grass: 98
[8]; [16]
  Plant response rating, Surinam Grass: 98
[9]; [10]
  Plant response rating, Sandbur: 65
[9]; [11]
  Plant response rating, Sandbur: 65
[9]; [12]
  Plant response rating, Sandbur: 80
[9]; [17]
  Plant response rating, Sandbur: 75
[9]; [13]
  Plant response rating, Sandbur: 0
[9]; [14]
  Plant response rating, Sandbur: 0
[9]; [16]
  Plant response rating, Sandbur: 98
